According to paper PMC5862592, “CDK8/19 inhibition induces premature G1/S transition and ATR-dependent cell death in prostate cancer cells” (Oncotarget, 2018):
Like-named read-outs stand apart in the source and are kept apart here.

What was measured:
Test in all cases: biochemical
Design in all cases: KINOMEscan active site-directed competition binding assay (DiscoveRx), 456 kinases, per cent of control at 300 nM
Conditions in all cases: read-out: Percent of Control (%)
[1] = biological target: PIK3CA(E545A) (Homo sapiens, UniProt P42336, E545A)
PIK3CA(E545A), sequence (P42336 whole entry E545A): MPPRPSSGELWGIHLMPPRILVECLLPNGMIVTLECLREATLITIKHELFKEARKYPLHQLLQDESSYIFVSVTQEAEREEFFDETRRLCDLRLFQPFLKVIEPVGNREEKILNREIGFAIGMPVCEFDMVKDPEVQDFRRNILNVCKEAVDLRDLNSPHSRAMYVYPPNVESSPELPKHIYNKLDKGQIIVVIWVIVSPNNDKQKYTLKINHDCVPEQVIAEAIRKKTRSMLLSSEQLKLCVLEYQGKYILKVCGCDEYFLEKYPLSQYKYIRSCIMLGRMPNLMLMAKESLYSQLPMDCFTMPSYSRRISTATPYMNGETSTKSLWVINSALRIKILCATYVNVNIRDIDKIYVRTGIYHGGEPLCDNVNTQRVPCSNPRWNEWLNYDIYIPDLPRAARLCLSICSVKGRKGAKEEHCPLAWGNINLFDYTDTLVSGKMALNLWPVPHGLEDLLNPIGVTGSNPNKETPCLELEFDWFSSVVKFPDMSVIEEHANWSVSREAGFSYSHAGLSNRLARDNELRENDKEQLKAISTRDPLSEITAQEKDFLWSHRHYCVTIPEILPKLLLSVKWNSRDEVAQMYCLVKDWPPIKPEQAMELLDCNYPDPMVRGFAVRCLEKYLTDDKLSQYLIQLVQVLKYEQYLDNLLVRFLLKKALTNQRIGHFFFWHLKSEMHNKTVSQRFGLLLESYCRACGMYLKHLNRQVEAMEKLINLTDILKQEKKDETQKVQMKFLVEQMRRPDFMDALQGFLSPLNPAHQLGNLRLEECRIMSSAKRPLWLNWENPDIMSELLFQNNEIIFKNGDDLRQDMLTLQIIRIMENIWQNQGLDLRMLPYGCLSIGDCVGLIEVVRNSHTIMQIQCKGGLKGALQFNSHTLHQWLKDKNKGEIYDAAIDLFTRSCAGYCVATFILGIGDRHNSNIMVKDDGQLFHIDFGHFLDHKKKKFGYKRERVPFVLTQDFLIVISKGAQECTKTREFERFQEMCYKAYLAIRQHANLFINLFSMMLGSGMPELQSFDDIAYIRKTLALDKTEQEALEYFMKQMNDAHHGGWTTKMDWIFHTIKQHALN
How it was run: (§1)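 At 300 nmol/L, compounds were assessed for kinase binding in an active site-directed competition format covering 456 kinases.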

[2] = biological target: RIPK4 (Homo sapiens, UniProt P57078)
How it was run: as §1

[3] = biological target: T1, YANK1 (Homo sapiens, UniProt Q8WU08)
T1 construct: gene STK32A
T1 sequence (Q8WU08 whole entry): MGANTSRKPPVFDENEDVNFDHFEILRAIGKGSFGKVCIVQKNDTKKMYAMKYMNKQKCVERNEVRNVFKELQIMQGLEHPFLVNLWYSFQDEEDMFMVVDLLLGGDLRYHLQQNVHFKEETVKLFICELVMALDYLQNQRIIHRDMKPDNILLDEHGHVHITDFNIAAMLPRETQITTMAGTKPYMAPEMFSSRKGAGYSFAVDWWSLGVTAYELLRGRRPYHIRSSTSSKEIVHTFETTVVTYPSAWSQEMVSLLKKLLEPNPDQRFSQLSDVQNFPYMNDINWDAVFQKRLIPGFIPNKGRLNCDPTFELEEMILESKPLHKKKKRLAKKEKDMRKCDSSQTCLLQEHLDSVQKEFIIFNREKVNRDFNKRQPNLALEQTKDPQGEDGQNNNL
How it was run: as §1

[4] = biological target: DMPK (Homo sapiens, UniProt Q09013)
How it was run: as §1

[5] = biological target: MAPKAPK2 (Homo sapiens, UniProt P49137)
How it was run: as §1

[6] = biological target: FGFR4 (Homo sapiens, UniProt P22455)
FGFR4, sequence (P22455 whole entry): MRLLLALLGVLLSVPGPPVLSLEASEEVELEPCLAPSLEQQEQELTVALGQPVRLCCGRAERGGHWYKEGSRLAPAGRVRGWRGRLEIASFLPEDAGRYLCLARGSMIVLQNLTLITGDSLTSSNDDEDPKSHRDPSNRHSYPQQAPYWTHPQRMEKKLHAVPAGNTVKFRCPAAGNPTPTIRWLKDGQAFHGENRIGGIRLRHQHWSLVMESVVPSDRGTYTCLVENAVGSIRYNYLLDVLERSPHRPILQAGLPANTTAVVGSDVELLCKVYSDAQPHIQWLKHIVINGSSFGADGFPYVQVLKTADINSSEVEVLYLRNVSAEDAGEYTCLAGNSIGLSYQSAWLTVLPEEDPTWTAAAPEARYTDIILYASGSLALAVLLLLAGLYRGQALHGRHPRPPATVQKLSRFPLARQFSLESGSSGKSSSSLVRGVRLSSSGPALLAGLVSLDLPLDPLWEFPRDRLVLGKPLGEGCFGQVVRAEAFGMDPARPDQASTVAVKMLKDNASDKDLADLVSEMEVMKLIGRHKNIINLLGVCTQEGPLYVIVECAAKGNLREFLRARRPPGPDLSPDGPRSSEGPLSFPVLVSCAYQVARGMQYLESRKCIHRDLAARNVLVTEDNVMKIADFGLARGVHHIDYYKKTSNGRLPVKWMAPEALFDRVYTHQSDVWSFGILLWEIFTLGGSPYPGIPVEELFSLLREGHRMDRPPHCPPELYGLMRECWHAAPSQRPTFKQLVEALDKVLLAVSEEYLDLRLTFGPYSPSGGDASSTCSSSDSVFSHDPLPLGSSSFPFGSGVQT
How it was run: as §1

[7] = biological target: T2, ERK4 (Homo sapiens, UniProt P31152)
T2 construct: gene MAPK4
How it was run: as §1

[8] = biological target: STK36 (Homo sapiens, UniProt Q9NRP7)
How it was run: as §1

[9] = biological target: T3, MKK7 (Homo sapiens, UniProt O14733)
T3 construct: gene MAP2K7
How it was run: as §1

[10] = biological target: DYRK1B (Homo sapiens, UniProt Q9Y463)
DYRK1B, sequence (Q9Y463 whole entry): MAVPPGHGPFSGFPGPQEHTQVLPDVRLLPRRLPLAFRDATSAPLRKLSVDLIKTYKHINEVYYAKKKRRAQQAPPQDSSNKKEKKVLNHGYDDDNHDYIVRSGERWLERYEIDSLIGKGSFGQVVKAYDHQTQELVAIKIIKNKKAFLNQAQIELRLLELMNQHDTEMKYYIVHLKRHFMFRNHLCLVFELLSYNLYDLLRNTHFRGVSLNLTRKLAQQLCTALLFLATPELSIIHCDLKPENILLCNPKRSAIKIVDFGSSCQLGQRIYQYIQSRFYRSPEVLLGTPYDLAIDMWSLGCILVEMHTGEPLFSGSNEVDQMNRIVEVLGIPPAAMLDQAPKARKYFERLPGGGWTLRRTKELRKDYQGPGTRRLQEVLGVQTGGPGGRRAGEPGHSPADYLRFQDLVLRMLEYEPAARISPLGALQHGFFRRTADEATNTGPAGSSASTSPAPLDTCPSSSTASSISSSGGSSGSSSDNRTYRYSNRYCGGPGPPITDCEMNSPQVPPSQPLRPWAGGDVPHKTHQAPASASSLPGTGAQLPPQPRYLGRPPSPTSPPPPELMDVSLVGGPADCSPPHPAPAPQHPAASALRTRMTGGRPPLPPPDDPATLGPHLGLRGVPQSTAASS
How it was run: as §1

[11] = biological target: KIT(D816V) (Homo sapiens, UniProt P10721, D816V)
KIT(D816V), sequence (P10721 whole entry D816V): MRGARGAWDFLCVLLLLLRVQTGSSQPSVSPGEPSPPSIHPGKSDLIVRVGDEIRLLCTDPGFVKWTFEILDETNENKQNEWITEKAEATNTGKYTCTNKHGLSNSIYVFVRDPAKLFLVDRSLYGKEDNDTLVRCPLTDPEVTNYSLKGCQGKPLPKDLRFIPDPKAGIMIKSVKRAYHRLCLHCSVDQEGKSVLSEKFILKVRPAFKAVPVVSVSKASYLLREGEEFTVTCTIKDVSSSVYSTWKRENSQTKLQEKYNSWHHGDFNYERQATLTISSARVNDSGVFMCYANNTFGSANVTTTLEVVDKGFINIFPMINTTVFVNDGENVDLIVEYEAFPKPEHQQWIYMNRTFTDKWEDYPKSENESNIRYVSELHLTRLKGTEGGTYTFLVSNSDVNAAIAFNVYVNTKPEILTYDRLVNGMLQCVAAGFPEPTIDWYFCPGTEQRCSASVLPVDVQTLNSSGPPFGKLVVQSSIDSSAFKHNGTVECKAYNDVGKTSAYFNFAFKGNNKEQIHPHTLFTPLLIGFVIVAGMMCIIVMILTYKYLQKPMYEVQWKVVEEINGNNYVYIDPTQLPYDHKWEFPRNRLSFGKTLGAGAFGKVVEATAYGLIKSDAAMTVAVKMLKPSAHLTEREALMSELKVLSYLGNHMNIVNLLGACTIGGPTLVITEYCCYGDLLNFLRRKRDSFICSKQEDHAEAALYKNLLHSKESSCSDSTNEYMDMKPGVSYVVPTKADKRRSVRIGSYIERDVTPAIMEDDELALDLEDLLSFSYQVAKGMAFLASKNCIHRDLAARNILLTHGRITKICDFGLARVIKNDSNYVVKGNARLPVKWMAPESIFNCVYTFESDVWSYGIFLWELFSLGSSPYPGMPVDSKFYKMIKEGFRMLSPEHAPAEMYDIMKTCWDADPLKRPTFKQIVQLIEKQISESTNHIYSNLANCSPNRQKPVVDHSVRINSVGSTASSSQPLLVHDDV
How it was run: as §1

[12] = biological target: T4, RSK2(Kin.Dom.2-C-terminal) (Homo sapiens, UniProt P51812)
T4 construct: gene RPS6KA3; Kin.Dom.2-C-terminal
How it was run: as §1

[13] = biological target: T5, MST1 (Homo sapiens, UniProt Q13043)
T5 construct: gene STK4
T5 sequence (Q13043 whole entry): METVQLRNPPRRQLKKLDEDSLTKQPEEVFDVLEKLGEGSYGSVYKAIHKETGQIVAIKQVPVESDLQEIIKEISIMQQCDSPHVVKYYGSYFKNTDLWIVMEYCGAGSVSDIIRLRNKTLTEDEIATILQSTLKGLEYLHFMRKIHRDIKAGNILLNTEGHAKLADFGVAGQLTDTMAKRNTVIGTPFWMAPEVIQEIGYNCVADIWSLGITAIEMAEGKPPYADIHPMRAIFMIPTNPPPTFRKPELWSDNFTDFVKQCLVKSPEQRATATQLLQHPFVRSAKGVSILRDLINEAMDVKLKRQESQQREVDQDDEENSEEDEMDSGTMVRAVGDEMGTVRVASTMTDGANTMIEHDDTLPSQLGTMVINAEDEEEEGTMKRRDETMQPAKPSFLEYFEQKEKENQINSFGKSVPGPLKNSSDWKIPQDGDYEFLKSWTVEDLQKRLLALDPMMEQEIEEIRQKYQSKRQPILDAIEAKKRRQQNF
How it was run: as §1

[14] = biological target: WEE1 (Homo sapiens, UniProt P30291)
How it was run: as §1

[15] = biological target: T6, p38-delta (Homo sapiens, UniProt O15264)
T6 construct: gene MAPK13
T6 sequence (O15264 whole entry): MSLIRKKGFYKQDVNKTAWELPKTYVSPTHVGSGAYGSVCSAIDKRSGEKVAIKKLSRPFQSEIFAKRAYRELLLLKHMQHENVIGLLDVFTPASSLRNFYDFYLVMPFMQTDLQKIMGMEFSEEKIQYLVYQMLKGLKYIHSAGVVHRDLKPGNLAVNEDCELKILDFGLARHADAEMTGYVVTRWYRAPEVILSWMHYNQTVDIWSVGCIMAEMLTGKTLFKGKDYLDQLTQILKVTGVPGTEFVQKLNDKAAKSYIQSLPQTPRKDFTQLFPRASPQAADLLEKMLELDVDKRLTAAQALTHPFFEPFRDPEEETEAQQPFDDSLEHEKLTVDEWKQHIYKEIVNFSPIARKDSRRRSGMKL
How it was run: as §1

[16] = biological target: PIK3CA(H1047L) (Homo sapiens, UniProt P42336, H1047L)
PIK3CA(H1047L), sequence (P42336 whole entry H1047L): as the sequence (P42336 whole entry E545A) above, with A545E, H1047L counted along it
How it was run: as §1

[17] = biological target: TBK1 (Homo sapiens, UniProt Q9UHD2)
How it was run: as §1

[18] = biological target: HIPK2 (Homo sapiens, UniProt Q9H2X6)
How it was run: as §1

[19] = biological target: NEK5 (Homo sapiens, UniProt Q6P3R8)
How it was run: as §1

[20] = biological target: PIK3CA(E545K) (Homo sapiens, UniProt P42336, E545K)
PIK3CA(E545K), sequence (P42336 whole entry E545K): as the sequence (P42336 whole entry E545A) above, with A545K counted along it
How it was run: as §1

[21] = biological target: PIK3CA (Homo sapiens, UniProt P42336)
PIK3CA, sequence (P42336 whole entry): as the sequence (P42336 whole entry E545A) above, with A545E counted along it
How it was run: as §1

How did the remaining binding at 0.3 µM ([1]; sheet T-418) turn out when `O=C(/C=C/c1cnccc1-c1ccc(F)cc1)Nc1ccc(CCc2nnco2)cc1` [T-418, (2E)-3-(4-(4-fluorophenyl)pyridin-3-yl)-N-(4-(2-(1,3,4-oxadiazol-2-yl)ethyl)phenyl)acrylamide] was run?
Its remaining binding at 0.3 µM is 78%.

And the remaining binding at 0.3 µM ([2]; sheet T-418)?
The remaining binding at 0.3 µM was 100%.

What about the remaining binding at 0.3 µM ([3]; sheet T-418) of the same compound?
Its remaining binding at 0.3 µM is 100%.

What about the remaining binding at 0.3 µM ([4]; sheet T-418) of the same compound?
The remaining binding at 0.3 µM was 91%.

And the remaining binding at 0.3 µM ([5]; sheet T-418)?
The remaining binding at 0.3 µM was 100%.

What about the remaining binding at 0.3 µM ([6]; sheet T-418) of the same compound?
Its remaining binding at 0.3 µM is 80%.

What about the remaining binding at 0.3 µM ([7]; sheet T-418) of the same compound?
The remaining binding at 0.3 µM was 100%.

What about the remaining binding at 0.3 µM ([8]; sheet T-418) of the same compound?
Its remaining binding at 0.3 µM is 100%.

What about the remaining binding at 0.3 µM ([9]; sheet T-418) of the same compound?
The remaining binding at 0.3 µM was 100%.

And the remaining binding at 0.3 µM ([10]; sheet T-418)?
Its remaining binding at 0.3 µM is 67%.

And the remaining binding at 0.3 µM ([11]; sheet T-418)?
The remaining binding at 0.3 µM was 96%.

What about the remaining binding at 0.3 µM ([12]; sheet T-418) of the same compound?
Its remaining binding at 0.3 µM is 100%.

And the remaining binding at 0.3 µM ([13]; sheet T-418)?
Its remaining binding at 0.3 µM is 89%.

What about the remaining binding at 0.3 µM ([14]; sheet T-418) of the same compound?
Its remaining binding at 0.3 µM is 90%.

And the remaining binding at 0.3 µM ([15]; sheet T-418)?
Its remaining binding at 0.3 µM is 100%.

What about the remaining binding at 0.3 µM ([16]; sheet T-418) of the same compound?
The remaining binding at 0.3 µM was 100%.

And the remaining binding at 0.3 µM ([17]; sheet T-418)?
The remaining binding at 0.3 µM was 75%.

What about the remaining binding at 0.3 µM ([18]; sheet T-418) of the same compound?
Its remaining binding at 0.3 µM is 53%.

And the remaining binding at 0.3 µM ([19]; sheet T-418)?
Its remaining binding at 0.3 µM is 100%.

What about the remaining binding at 0.3 µM ([20]; sheet T-418) of the same compound?
The remaining binding at 0.3 µM was 82%.

And the remaining binding at 0.3 µM ([21]; sheet T-418)?
The remaining binding at 0.3 µM was 84%.

Which remaining binding at 0.3 µM [1] does the source give for `Cc1ncccc1Oc1sc(C(N)=O)c2c1-c1c(cnn1C)CC2` [T-474, 1-methyl-8-((2-methylpyridin-3-yl)oxy)-4,5-dihydro-1H-thieno[3,4-g]indazole-6-carboxamide] here?
The remaining binding at 0.3 µM was 69%.

What about the remaining binding at 0.3 µM [2] of the same compound?
The remaining binding at 0.3 µM was 100%.

And the remaining binding at 0.3 µM [3]?
Its remaining binding at 0.3 µM is 100%.

What about the remaining binding at 0.3 µM [4] of the same compound?
Its remaining binding at 0.3 µM is 98%.

And the remaining binding at 0.3 µM [5]?
The remaining binding at 0.3 µM was 100%.

And the remaining binding at 0.3 µM [6]?
Its remaining binding at 0.3 µM is 97%.

What about the remaining binding at 0.3 µM [7] of the same compound?
The remaining binding at 0.3 µM was 100%.

And the remaining binding at 0.3 µM [8]?
The remaining binding at 0.3 µM was 100%.

And the remaining binding at 0.3 µM [9]?
Its remaining binding at 0.3 µM is 100%.

And the remaining binding at 0.3 µM [10]?
The remaining binding at 0.3 µM was 24%.

What about the remaining binding at 0.3 µM [11] of the same compound?
Its remaining binding at 0.3 µM is 94%.

And the remaining binding at 0.3 µM [12]?
The remaining binding at 0.3 µM was 100%.

And the remaining binding at 0.3 µM [13]?
The remaining binding at 0.3 µM was 100%.

What about the remaining binding at 0.3 µM [14] of the same compound?
Its remaining binding at 0.3 µM is 90%.

What about the remaining binding at 0.3 µM [15] of the same compound?
Its remaining binding at 0.3 µM is 96%.

What about the remaining binding at 0.3 µM [16] of the same compound?
Its remaining binding at 0.3 µM is 100%.

And the remaining binding at 0.3 µM [17]?
The remaining binding at 0.3 µM was 67%.

What about the remaining binding at 0.3 µM [18] of the same compound?
The remaining binding at 0.3 µM was 42%.

And the remaining binding at 0.3 µM [19]?
The remaining binding at 0.3 µM was 100%.

What about the remaining binding at 0.3 µM [20] of the same compound?
Its remaining binding at 0.3 µM is 100%.

What about the remaining binding at 0.3 µM [21] of the same compound?
The remaining binding at 0.3 µM was 92%.
